Data on three compounds can be found in patent US20080200442A1, “Compositions and Methods for Treating, Reducing, Ameliorating, or Preventing Infections of the Ear or Upper Respiratory Tract” (priority 2007, published 2008).

In general, MIC90 refers to an inhibitory concentration at the 90% level, which refers to growth in some studies and to a panel of isolates in others. A low value points to greater potency.

≈ marks a conversion by molar mass, not a printed value.

The assay has as its system Ofloxacin-resistant Enterobacteriaceae. The assay is described as follows: organism not typed. It is filed as cell-based.
`NC1CCCCN(c2c(F)cc3c(=O)c(C(=O)O)cn(C4CC4)c3c2Cl)C1` (stereo not drawn) [Compound Having Formula III] registered an MIC90 of 16 µg/mL.

`CCn1cc(C(=O)O)c(=O)c2cc(F)c(N3CCNCC3)cc21` [Norfloxacin] came in with an MIC90 of 128 µg/mL (≈ 401 µM). This MIC90 is about 8-fold higher than that of the compound before. For `CC1COc2c(N3CCN(C)CC3)c(F)cc3c(=O)c(C(=O)O)cn1c23` (stereo not drawn) [Ofloxacin] the value was 64 µg/mL (≈ 177 µM).
